# Test results from patent US20230233569A1 (Revolution Medicines, Inc., priority 2020, published 2023).
# Like-named read-outs stand apart in the source and are kept apart here.
# Tests used:
# Assay in all cases: Ras-Raf disruption / FRET / MOA assay (BRAF RBD)
# Type in all cases: biochemical
# KRAS G13C = KRAS G13C (Homo sapiens, UniProt P01116+P62937, G13C); details: with Cyclophilin A
# Summary of the method: (§1)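 Compound-induced Ras–Cyclophilin A ternary complex disrupting BRAF RBD binding, read as IC50 from reduced TR-FRET ratio relative to DMSO. Final: Ras-GMPPNP 12.5 nM, BRAF RBD 50 nM, Cyclophilin A 25 μM, top compound 30 μM (3-fold, 10 points); 3 h at 25 °C, then 1.5 h with detection antibodies.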
# KRAS G13D = KRAS G13D (Homo sapiens, UniProt P01116+P62937, G13D); details: with Cyclophilin A
# Sequence of KRAS G13D (P01116 1-169 isoform P01116-2 G13D limits assumed): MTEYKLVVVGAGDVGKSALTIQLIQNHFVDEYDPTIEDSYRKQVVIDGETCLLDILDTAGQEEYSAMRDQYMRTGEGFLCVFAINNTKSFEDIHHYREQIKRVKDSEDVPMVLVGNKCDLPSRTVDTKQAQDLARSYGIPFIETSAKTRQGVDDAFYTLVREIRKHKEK
# Sequence of KRAS G13D (P62937 whole entry): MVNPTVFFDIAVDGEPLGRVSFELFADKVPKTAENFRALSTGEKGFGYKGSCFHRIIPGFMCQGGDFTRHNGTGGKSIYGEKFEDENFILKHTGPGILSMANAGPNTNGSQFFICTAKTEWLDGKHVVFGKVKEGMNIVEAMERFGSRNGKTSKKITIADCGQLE
# Summary of the method: as §1
# KRAS G12S = KRAS G12S (Homo sapiens, UniProt P01116+P62937, G12S); details: with Cyclophilin A
# Sequence of KRAS G12S (P01116 1-169 isoform P01116-2 G12S limits assumed): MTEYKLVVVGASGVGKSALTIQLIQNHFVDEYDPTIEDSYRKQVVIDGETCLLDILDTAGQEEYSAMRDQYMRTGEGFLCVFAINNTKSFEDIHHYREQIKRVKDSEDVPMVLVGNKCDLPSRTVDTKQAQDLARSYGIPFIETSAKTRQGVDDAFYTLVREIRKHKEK
# Sequence of KRAS G12S (P62937 whole entry): as the sequence (P62937 whole entry) above
# Summary of the method: as §1
# KRAS G12V = KRAS G12V (Homo sapiens, UniProt P01116+P62937, G12V); details: with Cyclophilin A
# Sequence of KRAS G12V (P01116 1-169 isoform P01116-2 G12V limits assumed): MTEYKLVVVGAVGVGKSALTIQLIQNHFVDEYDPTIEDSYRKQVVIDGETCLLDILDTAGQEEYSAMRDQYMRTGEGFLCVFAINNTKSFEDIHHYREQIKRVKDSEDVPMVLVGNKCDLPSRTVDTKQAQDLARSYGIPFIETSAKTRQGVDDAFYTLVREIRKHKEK
# Sequence of KRAS G12V (P62937 whole entry): as the sequence (P62937 whole entry) above
# Summary of the method: as §1
# NRAS G12C = NRAS G12C (Homo sapiens, UniProt P01111+P62937, G12C)
# Sequence of NRAS G12C (P01111 whole entry G12C): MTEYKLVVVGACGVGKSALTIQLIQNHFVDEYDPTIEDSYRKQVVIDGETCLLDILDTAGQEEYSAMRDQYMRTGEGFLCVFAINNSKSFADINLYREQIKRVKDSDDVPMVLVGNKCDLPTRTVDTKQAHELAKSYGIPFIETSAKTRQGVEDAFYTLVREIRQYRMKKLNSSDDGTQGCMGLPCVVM
# Sequence of NRAS G12C (P62937 whole entry): as the sequence (P62937 whole entry) above
# Summary of the method: as §1
# KRAS WT = KRAS WT (Homo sapiens, UniProt P01116+P62937); details: with Cyclophilin A
# Sequence of KRAS WT (P01116 1-169 isoform P01116-2 limits assumed): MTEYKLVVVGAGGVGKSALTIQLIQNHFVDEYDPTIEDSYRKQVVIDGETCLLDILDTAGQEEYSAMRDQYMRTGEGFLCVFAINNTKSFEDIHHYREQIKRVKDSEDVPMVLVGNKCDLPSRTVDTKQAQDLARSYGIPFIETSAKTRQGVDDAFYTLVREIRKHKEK
# Sequence of KRAS WT (P62937 whole entry): as the sequence (P62937 whole entry) above
# Summary of the method: as §1
# KRAS G12D = KRAS G12D (Homo sapiens, UniProt P01116+P62937, G12D); details: with Cyclophilin A
# Sequence of KRAS G12D (P01116 1-169 isoform P01116-2 G12D limits assumed): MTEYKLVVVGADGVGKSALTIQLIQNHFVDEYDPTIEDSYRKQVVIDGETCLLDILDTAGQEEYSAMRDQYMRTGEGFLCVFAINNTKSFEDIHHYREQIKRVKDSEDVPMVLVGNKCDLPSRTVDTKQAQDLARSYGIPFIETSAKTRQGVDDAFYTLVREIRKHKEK
# Sequence of KRAS G12D (P62937 whole entry): as the sequence (P62937 whole entry) above
# Summary of the method: as §1
# KRAS G12C = KRAS G12C (Homo sapiens, UniProt P01116+P62937, G12C); details: with Cyclophilin A
# Sequence of KRAS G12C (P01116 1-169 isoform P01116-2 G12C limits assumed): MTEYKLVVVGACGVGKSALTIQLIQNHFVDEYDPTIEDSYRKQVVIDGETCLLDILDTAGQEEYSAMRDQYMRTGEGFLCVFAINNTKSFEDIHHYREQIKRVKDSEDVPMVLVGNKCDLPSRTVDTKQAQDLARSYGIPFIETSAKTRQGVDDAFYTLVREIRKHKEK
# Sequence of KRAS G12C (P62937 whole entry): as the sequence (P62937 whole entry) above
# Summary of the method: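 TR-FRET read-out after 1.5 h with anti-His Eu-W1024 (10 nM) and anti-GST APC (50 nM), following 3 h at 25 °C of compound (top 30 μM, 3-fold, 10 points) with 25 μM Cyclophilin A, 12.5 nM GMPPNP-loaded K-Ras G12C and 50 nM BRAF RBD; IC50 reported.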
# [1] = Ras-Raf disruption, read-out: KRAS G13C FRET data IC50
# [2] = Ras-Raf disruption, read-out: KRAS G13D FRET data IC50
# [3] = Ras-Raf disruption, read-out: KRAS G12S FRET data IC50
# [4] = Ras-Raf disruption, read-out: KRAS G12V FRET data IC50
# [5] = NRAS G12C, read-out: NRAS G12C FRET data IC50
# [6] = Ras-Raf disruption, read-out: KRAS WT FRET data IC50
# [7] = Ras-Raf disruption, read-out: KRAS G12D FRET data IC50
# [8] = Ras-Raf disruption, read-out: KRAS G12C FRET data IC50
# [9] = KRAS G13C FRET data IC50, Ras-Raf disruption
# [10] = KRAS G13D FRET data IC50, Ras-Raf disruption
# [11] = KRAS G12S FRET data IC50, Ras-Raf disruption
# [12] = KRAS G12V FRET data IC50, Ras-Raf disruption
# [13] = NRAS G12C FRET data IC50, NRAS G12C
# [14] = KRAS WT FRET data IC50, Ras-Raf disruption
# [15] = KRAS G12D FRET data IC50, Ras-Raf disruption
# [16] = KRAS G12C FRET data IC50, Ras-Raf disruption
# Sequence of KRAS G13C (P01116 1-169 isoform P01116-2 G13C limits assumed): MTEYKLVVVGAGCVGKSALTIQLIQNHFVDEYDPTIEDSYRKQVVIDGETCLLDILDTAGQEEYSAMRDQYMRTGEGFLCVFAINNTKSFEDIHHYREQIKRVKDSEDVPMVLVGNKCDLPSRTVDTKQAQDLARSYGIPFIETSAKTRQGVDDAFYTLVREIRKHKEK
# Sequence of KRAS G13C (P62937 whole entry): as the sequence (P62937 whole entry) above
Structure (SMILES),IC50 (KRAS G13C; [1]),IC50 (KRAS G13D; [2]),IC50 (KRAS G12S; [3]),IC50 (KRAS G12V; [4]),IC50 (NRAS G12C; [5]),IC50 (KRAS WT; [6]),IC50 (KRAS G12D; [7]),IC50 (KRAS G12C; [8]),IC50 (KRAS G13C; [9]),IC50 (KRAS G13D; [10]),IC50 (KRAS G12S; [11]),IC50 (KRAS G12V; [12]),IC50 (NRAS G12C; [13]),IC50 (KRAS WT; [14]),IC50 (KRAS G12D; [15]),IC50 (KRAS G12C; [16])
CCn1c(-c2cccnc2[C@H](C)OC)c2c3cc(ccc31)-c1cc(O)cc(c1)C[C@H](NC(=O)[C@H](C(C)C)N1CCC3(CN(C(=O)[C@H]4CN4)C3)C1=O)C(=O)N1CCC[C@H](N1)C(=O)OCC(C)(C)C2 [Example 115],10 to 100 nM,10 to 100 nM,100 to 1000 nM,100 to 1000 nM,< 10 nM,10 to 100 nM,100 to 1000 nM,< 10 nM,–,–,–,–,–,–,–,–
CCn1c(-c2cccnc2[C@H](C)OC)c2c3cc(ccc31)-c1cccc(c1)C[C@H](NC(=O)[C@H](C(C)C)N(C)C(=O)[C@H]1CC[C@H](N=C=NC34CC(C3)C4)C1)C(=O)N1CCC[C@H](N1)C(=O)OCC(C)(C)C2 [Example 123],100 to 1000 nM,> 10000 nM,> 10000 nM,1000 to 10000 nM,100 to 1000 nM,1000 to 10000 nM,1000 to 10000 nM,100 to 1000 nM,–,–,–,–,–,–,–,–
CCn1c(-c2cccnc2[C@H](C)OC)c2c3cc(ccc31)-c1cccc(c1)C[C@H](NC(=O)[C@H](C(C)C)N(C)C(=O)[C@H]1CC[C@H](N=C=NC(C)C)C1)C(=O)N1CCC[C@H](N1)C(=O)OCC(C)(C)C2 [Example 124],10 to 100 nM,> 10000 nM,> 10000 nM,1000 to 10000 nM,10 to 100 nM,1000 to 10000 nM,1000 to 10000 nM,10 to 100 nM,–,–,–,–,–,–,–,–
CCn1c(-c2cccnc2[C@H](C)OC)c2c3cc(ccc31)-c1cccc(c1)C[C@H](NC(=O)[C@H](C(C)C)N(C)C(=O)[C@H]1CC[C@H](N=C=NC(C)(C)C)C1)C(=O)N1CCC[C@H](N1)C(=O)OCC(C)(C)C2 [Example 125],100 to 1000 nM,> 10000 nM,> 10000 nM,> 10000 nM,10 to 100 nM,> 10000 nM,1000 to 10000 nM,10 to 100 nM,–,–,–,–,–,–,–,–
CCn1c(-c2cccnc2[C@H](C)OC)c2c3cc(ccc31)-c1cccc(c1)C[C@H](NC(=O)[C@H](C(C)C)N(C)C(=O)[C@H]1C[C@H](N=C=Nc3c(C)cccc3C)C1)C(=O)N1CCC[C@H](N1)C(=O)OCC(C)(C)C2 [Example 126],100 to 1000 nM,1000 to 10000 nM,100 to 1000 nM,1000 to 10000 nM,100 to 1000 nM,1000 to 10000 nM,1000 to 10000 nM,100 to 1000 nM,–,–,–,–,–,–,–,–
CCn1c(-c2cccnc2[C@H](C)OC)c2c3cc(ccc31)-c1cc(O)cc(c1)C[C@H](NC(=O)[C@H](C(C)C)N(C)C(=O)c1ccc(NC(=O)[C@H]3CN3)cn1)C(=O)N1CCC[C@H](N1)C(=O)OCC(C)(C)C2 [Example 127],10 to 100 nM,100 to 1000 nM,10 to 100 nM,100 to 1000 nM,100 to 1000 nM,100 to 1000 nM,100 to 1000 nM,100 to 1000 nM,–,–,–,–,–,–,–,–
CCn1c(-c2cccnc2[C@H](C)OC)c2c3cc(ccc31)-c1cc(O)cc(c1)C[C@H](NC(=O)[C@H](C(C)C)N1CC[C@@]3(CCN(C(=O)[C@@H]4N[C@@H]4C4CC4)C3)C1=O)C(=O)N1CCC[C@H](N1)C(=O)OCC(C)(C)C2 [Example 128],10 to 100 nM,100 to 1000 nM,100 to 1000 nM,100 to 1000 nM,10 to 100 nM,100 to 1000 nM,100 to 1000 nM,10 to 100 nM,–,–,–,–,–,–,–,–
CCn1c(-c2cccnc2[C@H](C)OC)c2c3cc(ccc31)-c1cc(O)cc(c1)C[C@H](NC(=O)[C@H](C(C)C)N1CC[C@@H](NC(=O)[C@@H]3CN3)C1=O)C(=O)N1CCC[C@H](N1)C(=O)OCC(C)(C)C2 [Example 129],–,–,–,–,–,–,–,–,< 10 nM,10 to 100 nM,10 to 100 nM,100 to 1000 nM,10 to 100 nM,10 to 100 nM,100 to 1000 nM,10 to 100 nM
CCn1c(-c2cccnc2[C@H](C)OC)c2c3cc(ccc31)-c1cc(O)cc(c1)C[C@H](NC(=O)[C@H](C(C)C)N1CC[C@@H](NC(=O)[C@H]3CN3)C1=O)C(=O)N1CCC[C@H](N1)C(=O)OCC(C)(C)C2 [Example 130],–,–,–,–,–,–,–,–,10 to 100 nM,10 to 100 nM,10 to 100 nM,100 to 1000 nM,10 to 100 nM,10 to 100 nM,100 to 1000 nM,10 to 100 nM
CCn1c(-c2cccnc2[C@H](C)OC)c2c3cc(ccc31)-c1cc(O)cc(c1)C[C@H](NC(=O)[C@H](C(C)C)N(C)C(=O)c1ccc([C@@H]3CN3)cc1)C(=O)N1CCC[C@H](N1)C(=O)OCC(C)(C)C2 [Example 131],10 to 100 nM,100 to 1000 nM,100 to 1000 nM,100 to 1000 nM,10 to 100 nM,100 to 1000 nM,100 to 1000 nM,10 to 100 nM,–,–,–,–,–,–,–,–
CCn1c(-c2cccnc2[C@H](C)OC)c2c3cc(ccc31)-c1csc(n1)C[C@H](NC(=O)[C@H](C1CCCC1)N(C)C(=O)CN(C)C(=O)[C@H]1CN1)C(=O)N1CCC[C@H](N1)C(=O)OCC(C)(C)C2 [Example 132],–,–,–,–,–,–,–,–,1000 to 10000 nM,1000 to 10000 nM,1000 to 10000 nM,1000 to 10000 nM,100 to 1000 nM,1000 to 10000 nM,1000 to 10000 nM,100 to 1000 nM
CCn1c(-c2cccnc2[C@H](C)OC)c2c3cc(ccc31)-c1cc(O)cc(c1)C[C@H](NC(=O)[C@H](C(C)C)N1CC[C@@]3(CCN(C[C@@H]4CN4)C3)C1=O)C(=O)N1CCC[C@H](N1)C(=O)OCC(C)(C)C2 [Example 138],10 to 100 nM,10 to 100 nM,100 to 1000 nM,1000 to 10000 nM,< 10 nM,10 to 100 nM,100 to 1000 nM,10 to 100 nM,–,–,–,–,–,–,–,–
CCn1c(-c2cccnc2[C@H](C)OC)c2c3cc(ccc31)-c1cc(O)cc(c1)C[C@H](NC(=O)[C@H](C(C)C)N(C)C(=O)N1CCN(C(=O)[C@H]3CN3)C(=O)C1)C(=O)N1CCC[C@H](N1)C(=O)OCC(C)(C)C2 [Example 143],10 to 100 nM,10 to 100 nM,10 to 100 nM,100 to 1000 nM,10 to 100 nM,10 to 100 nM,100 to 1000 nM,10 to 100 nM,–,–,–,–,–,–,–,–
CCn1c(-c2cccnc2[C@H](C)OC)c2c3cc(ccc31)-c1cc(O)cc(c1)C[C@H](NC(=O)[C@H](C(C)C)N(C)C(=O)c1ccc([C@H]3CN3)cc1)C(=O)N1CCC[C@H](N1)C(=O)OCC(C)(C)C2 [Example 145],10 to 100 nM,100 to 1000 nM,100 to 1000 nM,100 to 1000 nM,100 to 1000 nM,100 to 1000 nM,1000 to 10000 nM,100 to 1000 nM,–,–,–,–,–,–,–,–
